Reference: patent US20240423992A1, “BIOMARKERS FOR TREATING LIVER DISORDERS WITH THR-B AGONISTS AND RELATED USES” (Madrigal Pharmaceuticals, Inc., priority 2023, published 2024)

How the values were obtained:
[1] = tested on: adults with nonalcoholic fatty liver disease (NAFLD)/presumed nonalcoholic steatohepatitis (NASH); assay: 52-week Phase 3 trial (Example 1): thyroid hormone levels; type: in vivo, human; details: for FT3 (not on thyroxine) LSM Difference / FT3 (thyroxine-treated) LSM Difference / FT3/rT3 (not on thyroxine) LSM Difference / FT3/rT3 (thyroxine-treated) LSM Difference / FT3/rT3 LSM Difference / FT3 LSM Difference / FT4 (not on thyroxine) LSM Difference in % CFB / FT4 (not on thyroxine) LSM Difference in CFB / FT4 (thyroxine-treated) LSM Difference in % CFB / FT4 (thyroxine-treated) LSM Difference in CFB / FT4 LSM Difference in % CFB / FT4 LSM Difference in CFB / TBG (not on thyroxine) LSM Difference / TBG (thyroxine-treated) LSM Difference / TBG LSM Difference / TSH (not on thyroxine) LSM Difference / TSH (thyroxine-treated) LSM Difference / TSH LSM Difference / rT3 (not on thyroxine) LSM Difference / rT3 (thyroxine-treated) LSM Difference / rT3 LSM Difference / FT3 (not on thyroxine) LSM CFB / FT3 (thyroxine-treated) LSM CFB / FT3/rT3 (not on thyroxine) LSM CFB / FT3/rT3 (thyroxine-treated) LSM CFB / FT3/rT3 LSM CFB / FT3 LSM CFB / FT4 (not on thyroxine) LSM % CFB / FT4 (not on thyroxine) LSM CFB / FT4 (thyroxine-treated) LSM % CFB / FT4 (thyroxine-treated) LSM CFB / FT4 LSM % CFB / FT4 LSM CFB / TBG (not on thyroxine) LSM CFB / TBG (thyroxine-treated) LSM CFB / TBG LSM CFB / TSH (not on thyroxine) LSM CFB / TSH (thyroxine-treated) LSM CFB / TSH LSM CFB / rT3 (not on thyroxine) LSM CFB / rT3 (thyroxine-treated) LSM CFB / rT3 LSM CFB: Week 52
Protocol: (§1) A 52-week randomized, double-blind, placebo-controlled Phase 3 trial was conducted to evaluate the safety and effect of resmetirom, an oral, once-daily, liver-targeted thyroid hormone receptor-β selective agonist, on multiple biomarkers in adults with nonalcoholic fatty liver disease (NAFLD)/presumed nonalcoholic steatohepatitis (NASH). Patients were randomized to three double-blind arms (100 mg resmetirom, 80 mg resmetirom, or placebo) or one open-label arm (100 mg resmetirom). Common concomitant medications across the 4 arms were antidiabetes drugs (such as glucagon-like peptide-1 receptor agonists (GLP-1 RAs), metformin, pioglitazone, and sodium/glucose cotransporter-2 inhibitors (SGLT2i)) and drugs to manage dyslipidemia (statins).
Sex hormone levels after 52 weeks of resmetirom treatment are shown in Table A. Thyroid hormone levels after 52 weeks of resmetirom treatment are reported in Table B.

[2] = tested on: adults with nonalcoholic fatty liver disease (NAFLD)/presumed nonalcoholic steatohepatitis (NASH); assay: 52-week Phase 3 trial (Example 1): liver volume, open-label arm; type: in vivo, human; details: for Liver volume, mean reduction from baseline: open-label 100 mg resmetirom arm
Protocol: as §1
Liver volume was evaluated in the open-label 100 mg resmetirom arm at Week 52. Liver volume was reduced from baseline by a mean of 21% and 23% following 16 and 52 weeks of resmetirom treatment, respectively (FIGS. 3A and 3B). […] Correcting hepatic fat reduction for reduced liver volume led to an average hepatic fat reduction of 61% in the open-label arm.

[3] = Resmetirom 80 mg DB vs Placebo DB
[4] = Resmetirom 100 mg DB vs Placebo DB

Compound: CC(C)c1cc(Oc2c(Cl)cc(-n3nc(C#N)c(=O)[nH]c3=O)cc2Cl)n[nH]c1=O [Resmetirom, 2-[3,5-dichloro-4-[(6-oxo-5-propan-2-yl-1H-pyridazin-3-yl)oxy]phenyl]-3,5-dioxo-1,2,4-triazine-6-carbonitrile]
- FT3 (not on thyroxine) LSM Difference [1, 3]: 0.1 ng/L
- FT3 (thyroxine-treated) LSM Difference [1, 3]: 0.0 ng/L
- FT3/rT3 (not on thyroxine) LSM Difference [1, 3]: 0.05
- FT3/rT3 (thyroxine-treated) LSM Difference [1, 3]: 0.03
- FT3/rT3 LSM Difference [1, 3]: 0.05
- FT3 LSM Difference [1, 3]: 0.1 ng/L
- FT4 (not on thyroxine) LSM Difference in % CFB [1, 3]: −11.0%
- FT4 (not on thyroxine) LSM Difference in CFB [1, 3]: -0.1 ng/dL
- FT4 (thyroxine-treated) LSM Difference in % CFB [1, 3]: −10.2%
- FT4 (thyroxine-treated) LSM Difference in CFB [1, 3]: -0.1 ng/dL
- FT4 LSM Difference in % CFB [1, 3]: −10.8%
- FT4 LSM Difference in CFB [1, 3]: -0.1 ng/dL
- TBG (not on thyroxine) LSM Difference [1, 3]: -1.2 mg/L
- TBG (thyroxine-treated) LSM Difference [1, 3]: -0.6 mg/L
- TBG LSM Difference [1, 3]: -1.1 mg/L
- TSH (not on thyroxine) LSM Difference [1, 3]: 0.0 mIU/L
- TSH (thyroxine-treated) LSM Difference [1, 3]: −0.3 mIU/L
- TSH LSM Difference [1, 3]: −0.0 mIU/L
- rT3 (not on thyroxine) LSM Difference [1, 3]: -3.3 ng/dL
- rT3 (thyroxine-treated) LSM Difference [1, 3]: -4.4 ng/dL
- rT3 LSM Difference [1, 3]: -3.4 ng/dL
- FT3 (not on thyroxine) LSM CFB ([1]; Resmetirom 80 mg DB): -0.1 ng/L
- FT3 (thyroxine-treated) LSM CFB ([1]; Resmetirom 80 mg DB): 0.0 ng/L
- FT3/rT3 (not on thyroxine) LSM CFB ([1]; Resmetirom 80 mg DB): 0.04
- FT3/rT3 (thyroxine-treated) LSM CFB ([1]; Resmetirom 80 mg DB): 0.03
- FT3/rT3 LSM CFB ([1]; Resmetirom 80 mg DB): 0.04
- FT3 LSM CFB ([1]; Resmetirom 80 mg DB): -0.0 ng/L
- FT4 (not on thyroxine) LSM % CFB ([1]; Resmetirom 80 mg DB): −9.9%
- FT4 (not on thyroxine) LSM CFB ([1]; Resmetirom 80 mg DB): -0.1 ng/dL
- FT4 (thyroxine-treated) LSM % CFB ([1]; Resmetirom 80 mg DB): −6.4%
- FT4 (thyroxine-treated) LSM CFB ([1]; Resmetirom 80 mg DB): -0.1 ng/dL
- FT4 LSM % CFB ([1]; Resmetirom 80 mg DB): −9.6%
- FT4 LSM CFB ([1]; Resmetirom 80 mg DB): -0.1 ng/dL
- TBG (not on thyroxine) LSM CFB ([1]; Resmetirom 80 mg DB): -0.5 mg/L
- TBG (thyroxine-treated) LSM CFB ([1]; Resmetirom 80 mg DB): 1.5 mg/L
- TBG LSM CFB ([1]; Resmetirom 80 mg DB): 0.6 mg/L
- TSH (not on thyroxine) LSM CFB ([1]; Resmetirom 80 mg DB): −0.3 mIU/L
- TSH (thyroxine-treated) LSM CFB ([1]; Resmetirom 80 mg DB): −0.9 mIU/L
- TSH LSM CFB ([1]; Resmetirom 80 mg DB): −0.4 mIU/L
- rT3 (not on thyroxine) LSM CFB ([1]; Resmetirom 80 mg DB): -2.5 ng/dL
- rT3 (thyroxine-treated) LSM CFB ([1]; Resmetirom 80 mg DB): -3.8 ng/dL
- rT3 LSM CFB ([1]; Resmetirom 80 mg DB): -2.7 ng/dL
- FT3 (not on thyroxine) LSM Difference [1, 4]: 0.0 ng/L
- FT3 (thyroxine-treated) LSM Difference [1, 4]: -0.0 ng/L
- FT3/rT3 (not on thyroxine) LSM Difference [1, 4]: 0.05
- FT3/rT3 (thyroxine-treated) LSM Difference [1, 4]: 0.04
- FT3/rT3 LSM Difference [1, 4]: 0.05
- FT3 LSM Difference [1, 4]: 0.0 ng/L
- FT4 (not on thyroxine) LSM Difference in % CFB [1, 4]: −15.4%
- FT4 (not on thyroxine) LSM Difference in CFB [1, 4]: -0.2 ng/dL
- FT4 (thyroxine-treated) LSM Difference in % CFB [1, 4]: −23.0%
- FT4 (thyroxine-treated) LSM Difference in CFB [1, 4]: -0.3 ng/dL
- FT4 LSM Difference in % CFB [1, 4]: −16.1%
- FT4 LSM Difference in CFB [1, 4]: -0.2 ng/dL
- TBG (not on thyroxine) LSM Difference [1, 4]: -0.3 mg/L
- TBG (thyroxine-treated) LSM Difference [1, 4]: -2.4 mg/L
- TBG LSM Difference [1, 4]: -0.5 mg/L
- TSH (not on thyroxine) LSM Difference [1, 4]: −0.1 mIU/L
- TSH (thyroxine-treated) LSM Difference [1, 4]: 0.0 mIU/L
- TSH LSM Difference [1, 4]: −0.1 mIU/L
- rT3 (not on thyroxine) LSM Difference [1, 4]: -3.8 ng/dL
- rT3 (thyroxine-treated) LSM Difference [1, 4]: -5.5 ng/dL
- rT3 LSM Difference [1, 4]: -3.9 ng/dL
- FT3 (not on thyroxine) LSM CFB ([1]; Resmetirom 100 mg DB): -0.1 ng/L
- FT3 (thyroxine-treated) LSM CFB ([1]; Resmetirom 100 mg DB): -0.0 ng/L
- FT3/rT3 (not on thyroxine) LSM CFB ([1]; Resmetirom 100 mg DB): 0.04
- FT3/rT3 (thyroxine-treated) LSM CFB ([1]; Resmetirom 100 mg DB): 0.04
- FT3/rT3 LSM CFB ([1]; Resmetirom 100 mg DB): 0.04
- FT3 LSM CFB ([1]; Resmetirom 100 mg DB): -0.1 ng/L
- FT4 (not on thyroxine) LSM % CFB ([1]; Resmetirom 100 mg DB): −14.3%
- FT4 (not on thyroxine) LSM CFB ([1]; Resmetirom 100 mg DB): -0.2 ng/dL
- FT4 (thyroxine-treated) LSM % CFB ([1]; Resmetirom 100 mg DB): −19.2%
- FT4 (thyroxine-treated) LSM CFB ([1]; Resmetirom 100 mg DB): -0.2 ng/dL
- FT4 LSM % CFB ([1]; Resmetirom 100 mg DB): −14.9%
- FT4 LSM CFB ([1]; Resmetirom 100 mg DB): -0.2 ng/dL
- TBG (not on thyroxine) LSM CFB ([1]; Resmetirom 100 mg DB): 1.4 mg/L
- TBG (thyroxine-treated) LSM CFB ([1]; Resmetirom 100 mg DB): -0.2 mg/L
- TBG LSM CFB ([1]; Resmetirom 100 mg DB): 1.1 mg/L
- TSH (not on thyroxine) LSM CFB ([1]; Resmetirom 100 mg DB): −0.3 mIU/L
- TSH (thyroxine-treated) LSM CFB ([1]; Resmetirom 100 mg DB): −0.6 mIU/L
- TSH LSM CFB ([1]; Resmetirom 100 mg DB): −0.4 mIU/L
- rT3 (not on thyroxine) LSM CFB ([1]; Resmetirom 100 mg DB): -2.9 ng/dL
- rT3 (thyroxine-treated) LSM CFB ([1]; Resmetirom 100 mg DB): -4.9 ng/dL
- rT3 LSM CFB ([1]; Resmetirom 100 mg DB): -3.2 ng/dL
- FT3 (not on thyroxine) LSM CFB ([1]; Resmetirom 100 mg OL): -0.1 ng/L
- FT3 (thyroxine-treated) LSM CFB ([1]; Resmetirom 100 mg OL): -0.1 ng/L
- FT3/rT3 (not on thyroxine) LSM CFB ([1]; Resmetirom 100 mg OL): 0.05
- FT3/rT3 (thyroxine-treated) LSM CFB ([1]; Resmetirom 100 mg OL): 0.03
- FT3/rT3 LSM CFB ([1]; Resmetirom 100 mg OL): 0.04
- FT3 LSM CFB ([1]; Resmetirom 100 mg OL): -0.2 ng/L
- FT4 (not on thyroxine) LSM % CFB ([1]; Resmetirom 100 mg OL): −18.9%
- FT4 (not on thyroxine) LSM CFB ([1]; Resmetirom 100 mg OL): -0.2 ng/dL
- FT4 (thyroxine-treated) LSM % CFB ([1]; Resmetirom 100 mg OL): −14.8%
- FT4 (thyroxine-treated) LSM CFB ([1]; Resmetirom 100 mg OL): -0.2 ng/dL
- FT4 LSM % CFB ([1]; Resmetirom 100 mg OL): −16.1%
- FT4 LSM CFB ([1]; Resmetirom 100 mg OL): -0.2 ng/dL
- TBG (not on thyroxine) LSM CFB ([1]; Resmetirom 100 mg OL): 0.7 mg/L
- TBG (thyroxine-treated) LSM CFB ([1]; Resmetirom 100 mg OL): -1.0 mg/L
- TBG LSM CFB ([1]; Resmetirom 100 mg OL): 0.1 mg/L
- TSH (not on thyroxine) LSM CFB ([1]; Resmetirom 100 mg OL): −0.2 mIU/L
- TSH (thyroxine-treated) LSM CFB ([1]; Resmetirom 100 mg OL): 0.4 mIU/L
- TSH LSM CFB ([1]; Resmetirom 100 mg OL): 0.2 mIU/L
- rT3 (not on thyroxine) LSM CFB ([1]; Resmetirom 100 mg OL): -3.5 ng/dL
- rT3 (thyroxine-treated) LSM CFB ([1]; Resmetirom 100 mg OL): -3.9 ng/dL
- rT3 LSM CFB ([1]; Resmetirom 100 mg OL): -3.3 ng/dL
- effect on active hormone free triiodothyronine (FT3) ([1]; resmetirom arms): No effects
- effect on thyroid-stimulating hormone (TSH) ([1]; resmetirom arms): No effects
- prohormone FT4 levels, change from baseline ([1]; resmetirom arms): Minimal reductions from baseline
- Liver volume in patient subgroups ([2]; all key patient subgroups of the OL arm): reductions in liver volume were observed
- Liver volume, mean reduction from baseline ([2]; 16 weeks): 21%
- Liver volume, mean reduction from baseline ([2]; 52 weeks): 23%
- average hepatic fat reduction corrected for reduced liver volume ([2]; open-label arm): 61%
